According to US6498138B1, “Method of promoting production of living tissue equivalents” (University of Southern California, priority 1998, dated 2002):
“Also recorded” adds a separate entry of the source. Square brackets hold non-standard residues; d marks the D form. Ends that are not written are not given here. Phe(4-NH2) = Nc1ccc(C[C@H](N)C(=O)O)cc1; Nle = CCCC[C@H](N)C(=O)O; Ac5c = NC1(C(=O)O)CCCC1

Assays:
Normal human fibroblasts = experiment: Contraction of collagen lattices by human fibroblasts; assay type: cell-based; details: for Diameter of Lattice, Day 1 / Diameter of Lattice, Day 2 / Diameter of Lattice, Day 3 / Diameter of Lattice, Day 4: 10 μg/ml peptide, 1×10^5 fibroblasts/well; for Diameter of Lattice, Day 1: Day 1 of culture; for Diameter of Lattice, Day 2: Day 2 of culture; for Diameter of Lattice, Day 3: Day 3 of culture; for Diameter of Lattice, Day 4: Day 4 of culture
Method: Normal human fibroblasts were purchased from Clonetics (San Diego, Calif.) and were thawed and cultured in Fibroblast Growth Medium (Clonetics) according to the manufacturer's instructions. Once the cells reached confluence in the flask, they were harvested by trypsinization and utilized for the studies described below.
Rat tails were harvested from 200 gram female rats and frozen until use. The frozen rat tails were thawed in 70% (vol/vol) ethanol for 20 minutes. The tendon bundles were excised in 70% ethanol in a vertical laminar flow hood. The individual tendons were pulled out of the tendon sheath, minced, and placed in dilute acetic acid (1:1000) using 250 ml per tail. The mixture was incubated at 4° C. for 48 hours, at which point the minced tendons had swelled to the volume of the dilute acetic acid. The viscous mixture was centrifuged at 23,000 rpm in a Beckman L ultracentrifuge for 1 hour. The supernatant was harvested and further refined. This crude collagen solution was mixed with 0.1M NaOH in a 6:1 ratio to neutralize the acetic acid and precipitate the collagen. The mixture was then centrifuged at 1500 rpm for 5 minutes. The supernatant was discarded and an equal volume of fresh acetic acid (1:1000) was introduced to resolubilize the collagen over 48 hours. This solution was stored at 4° C. as refined collagen. The protein concentration was determined by BCA assay.
The collagen lattices for the assessment of contraction by fibroblasts and angiotensin II were formed in 60 mm Falcon bacteriological dishes. Each dish contained 1 ml 4×DMEM High glucose medium, 1 ml fetal calf serum, 0.25 ml NaOH, 1.5 ml of 500 μg/ml refined collagen and 1 ml of fibroblasts in Fibroblast Growth Medium (7.5×10^4 cells/ml to 7.5×10^5 cells/ml). In these cultures, various concentrations of AII (1 to 10 μg/ml) were added to assess the effect of AII on the formation of an artificial dermis. The cultures were placed in an incubator at 37° C. in an atmosphere of 5% CO2 in air. At various times after culture initiation, the diameter of the formed lattice was measured. As there are slight differences in diameter at various points (ie: the lattices were not always perfectly round), the average of the largest and the smallest diameters were taken.
Similar experiments were conducted using AII analogues and fragments, except that ten μg/ml of each of the peptides shown in Table 3 were added to 1×10^5 of fibroblasts/well. At various times after culture initiation, the diameter of the formed lattice was measured.

Human keratinocytes = experiment: Keratinocyte proliferation on Integra artificial dermis; assay type: cell-based; details: 10 μg/ml peptide, 1×10^5 cells/ml
Excerpt: Integra, a commercially available artificial dermis of chondrotin sulfate and collagen, was obtained (Integra Life Sciences) and used in culture as a matrix for keratinocyte growth. The Integras was washed free of preservative by a sterile saline for injection and cut to size to fit snugly into the bottom of 24 well plates. After trimming, the pieces of Integra were placed silicone-side down into the wells.
Human keratinocytes were purchased from Clonetics and thawed and cultured as described in Example 3, except that they were grown in Keratinocyte Growth Medium, as per the manufacturer's instructions. Once the cells reached confluence in the flask, they were detached from the tissue culture flasks by trypsinization. The cells were resuspended at 1×10^5 cells/ml in Keratinocyte Growth Medium or Keratinocyte Basal Medium with or without 10 μg/ml of various AII-related peptides (AII, AII(1-7), Pro3 AII(1-7), Ala4-AIII, and Pro3-AII; see Table 5 below). One ml of these cell preparations was added to wells of the 24 well plates containing Integra membrane. The cultures were placed in an incubator at 37° C. in an atmosphere of 5% CO2 in air. At various times after initiation of the cultures, the number of keratinocytes on the surface of the Integra membrane in 5 100×fields was assessed under phase contrast microscopy.

[1] = test system: living skin equivalent (LSE) epidermis; experiment: Epidermal thickness of living skin equivalent (LSE) presoaked in AII and grafted on nude mice; assay type: in vivo, Swiss nude mice
Excerpt: Twenty three male Swiss nude mice (22-24 grams) were purchased from Taconic Laboratories and quarantined at least two days prior to surgery, and divided into 4 groups of mice. The mice were anesthetized with an intramuscular injection of Ketamine (ketaset; Phoenix Pharmaceuticals, Inc.) and Rompun (xylazine; Phoenix Pharmaceuticals, Inc.) and a 1 cm×1 cm full thickness skin excision was made on their dorsal surface. Each group received an Apligraph LSE (Organogenesis; Canton, Mass.) that had been soaked for 10 minutes in concentrations of AII ranging from 0 to 1.0 mg/ml. The LSE was placed in the defect and trimmed with microscissors so that no gap was observed between the edges of the mouse skin and the LSE. After the graft was placed, the dorsal surface of the mouse was covered by petroleum embedded gauze (Dermacea) followed by two adhesive bandages (Baxter). After recovery from anesthesia, the mice were returned to their individual cages and observed daily until euthenasia. The mice received intramuscular analgesia for the first three days after surgery. No mouse lost their bandage prior to bandage removal on day 7 and day 23. […]
[…] The thickest part of each graft was measured and the thickness of the graft at one-half of a 10×field to each side of the thickest portion was also measured.

[2] = test system: keratinocytes from explants of human skin; experiment: Outgrowth of keratinocytes from explants of human skin on Dermagraft; assay type: cell-based; details: AII 1 or 10 μg/ml, 7 days
Excerpt: Human skin explants were obtained from surgery of split thickness skin grafts and cut by scalpel in to 2 mm×2 mm squares. Ten explants per condition were placed dermal side down on frozen and thawed Dermagraft (Advanced Tissue Sciences, San Diego, Calif.) and cultured at the air-liquid interface using Keratinocyte-SFM medium (Gibco BRL, Grand Island, N.Y.) supplemented with epidermal growth factor and bovine pituitary extract according to the manufacturer's instructions. The culture medium contained penicillin (50 U/ml) and streptomycin (50 μg/ml) and extra calcium chloride to a final concentration of 1 mM. Angiotensin II was added to the culture medium at a final concentration of 1 or 10 μg/ml. The cultures were maintained at 37° C. with 5% CO2 and medium with and without AII and the medium was changed twice weekly. After 7 days, the cultures were fixed in formalin for one hour, stained with hematoxylin and washed in tap water. The dermal replacements appeared dark purple except for the area where the keratinocytes exclude the stain. Cultures were photographed using a dissection microscope at a fixed magnification and the area of outgrowth was quantified by gravimetric planimetry.

AT2 receptor = details: cited from earlier work
[3] = Unspecified test of effectiveness of AII fragments; details: test not specified

Substance | Diameter of Lattice, Day 1 (Normal human fibroblasts) | Diameter of Lattice, Day 2 (Normal human fibroblasts) | Diameter of Lattice, Day 3 (Normal human fibroblasts) | Diameter of Lattice, Day 4 (Normal human fibroblasts) | proliferation of keratinocytes (number on the surface of the Integra membrane) (Human keratinocytes) | also measured
--RVYnLHPF (RVY[Nle]HPF) [NorLeu4 AIII] | 3.4 cm | 2.0 cm | 1.6 cm | 1.5 cm |  | 
Asp-Arg-Val-Tyr-Ile-His-Pro (DRVYIHP) [AII(1-7)] | 3.4 cm | 2.4 cm | 2.0 cm | 1.7 cm | increased the proliferation of keratinocytes | 
Asp-Arg-Val-Tyr-Ile-His-Pro-Phe (DRVYIHPF) [AII, known pressor agent, commercially available, reference compound] | 3.3 cm | 2.4 cm | 1.6 cm | 1.4 cm | increased the proliferation of keratinocytes | vessels attached to underside of graft ([1]; day 7, one of the AII-treated grafts): numerous vessels attached to its underside; epidermal thickness ([1]; day 23 post-grafting, LSE soaked 10 minutes in AII 0 to 1.0 mg/ml): increased in a concentration-dependent manner; area of the artificial dermis covered with keratinocytes (outgrowth) [2]: increased the area of the artificial dermis covered with keratinocytes; contraction of collagen lattices (Normal human fibroblasts; AII 1 to 10 μg/ml, fibroblasts 7.5×10^4 to 7.5×10^5 cells/ml): accelerated the contraction of collagen lattices; affinity for AT2 than AT1 (AT2 receptor; AT2 versus AT1): 100 times
Asp-Arg-Val-Tyr-Ile-Xaa-Pro-Phe (DRVYI[Phe(4-NH2)]PF) [(p-NH2-Phe)6-AII] |  |  |  |  |  | binding characteristics (AT2 receptor; experimental models tested, compared with AT2 antagonists): comparable to AT2 antagonists
DR(Acpc)YIHPF (DR[Ac5c]YIHPF) [Acpc3 AII] | 3.5 cm | 2.0 cm | 1.6 cm | 1.4 cm |  | 
DRPYIHP [Pro3 AII(1-7)] |  |  |  |  | increased the proliferation of keratinocytes | 
DRPYIHPF [Pro3-AII] |  |  |  |  | increased the proliferation of keratinocytes | 
DRVYIHPI [Ile8 AII] | 3.4 cm | 2.4 cm | 1.7 cm | 1.4 cm |  | 
GRVYIHPF [Gly1 AII] | 3.4 cm | 2.2 cm | 1.6 cm | 1.5 cm |  | 
His-Pro-Phe (HPF) [AII(6-8)] |  |  |  |  |  | effectiveness [3]: not to be effective
RVYAHPF [Ala4-AIII] | 3.4 cm | 2.7 cm | 1.9 cm | 1.6 cm | increased the proliferation of keratinocytes | 
Tyr-Ile-His-Pro-Phe (YIHPF) [AII(4-8)] |  |  |  |  |  | effectiveness [3]: not to be effective; also recorded: ineffective in repeated tests
